Read-outs that look alike come from different tables or passages of the source. Square brackets hold non-standard residues; d marks the D form. Peptide text beside a SMILES is read from it. * marks the point of attachment. DOTA = O=C(O)CN1CCN(CC(=O)O)CCN(CC(=O)*)CCN(CC(=O)O)CC1; AEA = NCCOCC(=O)O
Legend:
[1] = Biodistribution in mouse model of myocardial infarction; format: in vivo; settings: iv, total radioactivity, 5 h post-injection; for tissue uptake at 5 h: 10 nmol i.v., mean ± SD
Method: An in vivo pilot study was performed to assess the in vivo biodistribution of ACPP-B and CPP-B, 5 h post-injection, in a mouse model of myocardial infarction (MI). The conditions were similar to the earlier study with the MMP-2/9 sensitive probe ^177Lu/^125I-ACPP-2/9 [1] to facilitate comparison. We aimed to characterize the in vivo biodistribution of ACPP-B using a dual-isotope approach with ^177Lu, labeled to the polycationic domain, and ^125I, labeled to the polyanionic domain, as orthogonal radiolabels (see Supplemental Information for performed iodination procedures). […] Unfortunately, a >95% radiochemical purity could not be achieved by solid phase extraction (Figure S5), and desalting strategies to remove ^125I could not be applied due to the low molecular weight of the peptide. Therefore, re-design of the ACPP-B peptide structure, to prevent side-reactions during iodination, may enable dual-isotope studies. Hereto, the cysteine residue can be acetylated, but oxidation of the sulfur atom may still occur. Furthermore, this conversion results in a more hydrophobic residue that may impact the MT1-MMP sensitivity of the probe. Substitution of the cysteine by a serine residue will possibly be a more attractive option. Alternatively, iodine may be introduced specifically to the N-terminus via coupling of a ^125I-SHPP moiety (following a similar approach as proposed for iodination of ACPP-C (Figure 1)).
(§1) Here, a single isotope labeled probe ^177Lu-ACPP-B was employed in a pilot in vivo study.
MI was induced by permanent ligation of the left anterior descending coronary artery (LAD) using published procedures. In short, animals were subcutaneously injected with buprenorphine (0.1 mg/kg) and 30 min later anesthetized with isoflurane. Animals were intubated and ventilated with 100% oxygen with a rodent respirator. After left thoracotomy between ribs four and five, the LAD was ligated with a 6–0 prolene suture. The chest and skin were closed with 5–0 silk sutures. The animal’s temperature was continuously measured rectally and maintained at 36.5–37.5 °C during surgery. After surgery, animals were allowed to recover at 30 °C overnight.
(§2) Biodistribution experiments were performed on MI-mice (n = 5 per probe) by i.v.-injection of ^177Lu-ACPP-B (10 nmol/100 µL, ca. 4.0 MBq ^177Lu), or ^177Lu-CPP-B (10 nmol/100 µL, ca. 4.0 MBq ^177Lu). For animals injected with ^177Lu-ACPP-B, blood samples were withdrawn from the vena saphena at selected time points (3, 9, 27, and 81 min), weighed, and diluted to 1 mL with MilliQ water. The mice were anesthetized with isoflurane 5 h after i.v.-injection, subjected to 2% (w/v) Evans Blue i.v.-injection (50 mg/kg) and sacrificed 2 min later by cervical dislocation. Organs and tissues of interest were harvested and weighed. The hearts were cooled to 4 °C, cut in 1 mm slices from apex to base. Infarct, border, and remote areas were isolated based on Evans Blue staining. The ^177Lu radioactivity of all samples was measured in a γ-counter (Wizard 1480; PerkinElmer) along with standards to determine the injected dose per gram (%ID/g). The energy window was set to 155–380 keV. The average probe concentration at time 0 (C0) was calculated by fitting the blood clearance data to the 2-phase exponential decay function Y = span1 × exp(−K1 × X) + span2 × exp(−K2 × X) + Plateau using GraphPad Prism. The area under the curve (AUC) was determined and the blood half-life, the time point at which the AUC reaches 50% of the total AUC, was subsequently derived using MatLab. The average volume of distribution was calculated using the formula VD = dose/(mean body weight × C0) [L/kg].

[2] = in vivo; settings: mouse; for tissue uptake: 10 nmol, total radioactivity
Method: as §1
Figure 6 Blood kinetics of ^177Lu-ACPP-B in MI-mice (n = 3). The data are mean %ID/g ± SD and fitted to the 2-phase exponential decay function Y = span1 × exp(−K1 × X) + span2 × exp(−K2 × X) + Plateau. Span1 = 2.61%ID/g, K1 = 1.99 min^−1, Span2 = 7.35%ID/g, K2 = 27.1 min^−1.
as §2

[3] = blood, MI-mice 10 days after MI, γ-counting, n = 5, read-out: Biodistribution, Blood
[4] = brain, MI-mice, n = 5, read-out: Biodistribution, Brain
[5] = fat, MI-mice, n = 5, read-out: Biodistribution, Fat
[6] = heart, infarct area, MI-mice, n = 5, read-out: Biodistribution, Heart, infarct
[7] = heart, remote myocardium, MI-mice, n = 5, read-out: Biodistribution, Heart, remote
[8] = kidney, MI-mice, n = 5, read-out: Biodistribution, Kidney
[9] = liver, MI-mice, n = 5, read-out: Biodistribution, Liver
[10] = lung, MI-mice, n = 5, read-out: Biodistribution, Lung
[11] = muscle, MI-mice, n = 5, read-out: Biodistribution, Muscle
[12] = spleen, MI-mice, n = 5, read-out: Biodistribution, Spleen
[13] = thigh bone, MI-mice, n = 5, read-out: Biodistribution, Thigh bone

SMILES | tissue uptake at 5 h [1, 3] | tissue uptake at 5 h [1, 4] | tissue uptake at 5 h [1, 5] | tissue uptake at 5 h [1, 6] | tissue uptake at 5 h [1, 7] | tissue uptake at 5 h [1, 8] | tissue uptake at 5 h [1, 9] | tissue uptake at 5 h [1, 10] | tissue uptake at 5 h [1, 11] | tissue uptake at 5 h [1, 12] | tissue uptake at 5 h [1, 13] | K1 of 2-phase exponential decay fit of blood kinetics [2] | K2 of 2-phase exponential decay fit of blood kinetics [2] | tissue uptake ([2]; iv, Span1 of 2-phase exponential decay fit of blood kinetics) | tissue uptake ([2]; iv, Span2 of 2-phase exponential decay fit of blood kinetics) | tissue to tissue ratio at 5 h ([1]; kidney and liver, ^177Lu label, 10 nmol, MI-mice, from Table 1) | blood half-life ([2]; iv)
CC(=O)N[C@H](Cc1ccc(O)cc1)C(=O)N[C@H](CCC(=O)O)C(=O)N[C@H](CCC(=O)O)C(=O)N[C@H](CCC(=O)O)C(=O)N[C@H](CCC(=O)O)C(=O)N[C@H](CCC(=O)O)C(=O)N[C@H](CCC(=O)O)C(=O)N[C@H](CCC(=O)O)C(=O)N[C@H](CCC(=O)O)C(=O)N[C@H](CCC(=O)O)C(=O)NCCOCC(=O)N[C@@H](CS)C(=O)N[C@@H](CCCNC(=N)N)C(=O)N1CCC[C@H]1C(=O)N[C@@H](C)C(=O)N[C@@H](Cc1c[nH]cn1)C(=O)N[C@@H](CC(C)C)C(=O)N[C@@H](CCCNC(=N)N)C(=O)N[C@@H](CC(=O)O)C(=O)N[C@@H](CO)C(=O)NCC(=O)NCCOCC(=O)N[C@H](CCCNC(=N)N)C(=O)N[C@H](CCCNC(=N)N)C(=O)N[C@H](CCCNC(=N)N)C(=O)N[C@H](CCCNC(=N)N)C(=O)N[C@H](CCCNC(=N)N)C(=O)N[C@H](CCCNC(=N)N)C(=O)N[C@H](CCCNC(=N)N)C(=O)N[C@H](CCCNC(=N)N)C(=O)N[C@H](CCCNC(=N)N)C(=O)N[C@H](CCCCNC(=O)CN1CCN(CC(=O)O)CCN(CC(=O)O)CCN(CC(=O)O)CC1)C(N)=O [^177Lu-ACPP-B, metal not drawn] (Ac-[dY][dE][dE][dE][dE][dE][dE][dE][dE][dE][AEA]CRPAHLRDSG[AEA][dR][dR][dR][dR][dR][dR][dR][dR][dR][dK](DOTA)-NH2) | 0.08 ± 0.03 %ID/g | 0.01 ± 0.01 %ID/g | 0.43 ± 0.28 %ID/g | 0.75 ± 0.15 %ID/g | 0.11 ± 0.02 %ID/g | 100 ± 13 %ID/g | 6.76 ± 0.91 %ID/g | 0.38 ± 0.09 %ID/g | 0.09 ± 0.07 %ID/g | 0.77 ± 0.13 %ID/g | 1.92 ± 0.73 %ID/g | 1.99 min⁻¹ | 27.1 min⁻¹ | 2.61 %ID/g | 7.35 %ID/g |  | 
CC(C)C[C@H](N)C(=O)N[C@@H](CCCNC(=N)N)C(=O)N[C@@H](CC(=O)O)C(=O)N[C@@H](CO)C(=O)NCC(=O)NCCOCC(=O)N[C@H](CCCNC(=N)N)C(=O)N[C@H](CCCNC(=N)N)C(=O)N[C@H](CCCNC(=N)N)C(=O)N[C@H](CCCNC(=N)N)C(=O)N[C@H](CCCNC(=N)N)C(=O)N[C@H](CCCNC(=N)N)C(=O)N[C@H](CCCNC(=N)N)C(=O)N[C@H](CCCNC(=N)N)C(=O)N[C@H](CCCNC(=N)N)C(=O)N[C@H](CCCCNC(=O)CN1CCN(CC(=O)O)CCN(CC(=O)O)CCN(CC(=O)O)CC1)C(N)=O [^177Lu-CPP-B, metal not drawn] (H-LRDSG[AEA][dR][dR][dR][dR][dR][dR][dR][dR][dR][dK](DOTA)-NH2) | 0.14 ± 0.06 %ID/g | 0.01 ± 0.01 %ID/g | 0.16 ± 0.07 %ID/g | 1.69 ± 0.5 %ID/g | 0.32 ± 0.11 %ID/g | 10.1 ± 1.61 %ID/g | 33.2 ± 3.98 %ID/g | 0.67 ± 0.25 %ID/g | 0.1 ± 0.02 %ID/g | 4.17 ± 0.82 %ID/g | 2.61 ± 0.25 %ID/g |  |  |  |  |  | 
CC(=O)N[C@H](Cc1ccc(O)cc1)C(=O)N[C@H](CCC(=O)O)C(=O)N[C@H](CCC(=O)O)C(=O)N[C@H](CCC(=O)O)C(=O)N[C@H](CCC(=O)O)C(=O)N[C@H](CCC(=O)O)C(=O)N[C@H](CCC(=O)O)C(=O)N[C@H](CCC(=O)O)C(=O)N[C@H](CCC(=O)O)C(=O)N[C@H](CCC(=O)O)C(=O)NCCOCC(=O)N[C@@H](CS)C(=O)N[C@@H](CCCNC(=N)N)C(=O)N1CCC[C@H]1C(=O)N[C@@H](C)C(=O)N[C@@H](Cc1c[nH]cn1)C(=O)N[C@@H](CC(C)C)C(=O)N[C@@H](CCCNC(=N)N)C(=O)N[C@@H](CC(=O)O)C(=O)N[C@@H](CO)C(=O)NCC(=O)NCCOCC(=O)N[C@H](CCCNC(=N)N)C(=O)N[C@H](CCCNC(=N)N)C(=O)N[C@H](CCCNC(=N)N)C(=O)N[C@H](CCCNC(=N)N)C(=O)N[C@H](CCCNC(=N)N)C(=O)N[C@H](CCCNC(=N)N)C(=O)N[C@H](CCCNC(=N)N)C(=O)N[C@H](CCCNC(=N)N)C(=O)N[C@H](CCCNC(=N)N)C(=O)N[C@H](CCCCNC(=O)CN1CCN(CC(=O)O)CCN(CC(=O)O)CCN(CC(=O)O)CC1)C(N)=O [ACPP-B, Ac-y-e9-X-CRPAHLRDSG-X-r9-k(DOTA)-NH2] (Ac-[dY][dE][dE][dE][dE][dE][dE][dE][dE][dE][AEA]CRPAHLRDSG[AEA][dR][dR][dR][dR][dR][dR][dR][dR][dR][dK](DOTA)-NH2) |  |  |  |  |  |  |  |  |  |  |  |  |  |  |  | 14.9 | ~ 24 min

From article PMC6332093, “Development of Radiolabeled Membrane Type-1 Matrix Metalloproteinase Activatable Cell Penetrating Peptide Imaging Probes” (Molecules, 2015)
